Experimental data published in patent publication US20240173432A1, “Compositions and Methods for Treatment of Myotonic Dystrophy Type 1 with CRISPR/SluCas9” (Vertex Pharmaceuticals Incorporated, priority 2021, published 2024).

Legend:
[1] = test system: CUG foci in primary DM1 patient myoblasts; experiment: Single-cut screening: FISH staining of CUG RNA foci; type: cell-based, human; details: single sgRNA, primary DM1 patient myoblasts; for % of CUG foci free nuclei (DNA-PKi): DNA-PKi treated
In short: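 CD56-purified primary DM1 patient myoblasts nucleofected with SluCas9:sgRNA RNP (30:90 pmol, single-cut), then DMSO or 3 μM DNA-PK inhibitor for 48 h. At 72 h post-nucleofection, cells fixed and stained for CUG foci with Cy3-PNA(CAG)5 probe (1 ng/μL, 80 °C), co-stained for MBNL1 and Hoechst, imaged by high-content confocal microscopy.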

[2] = test system: CAG foci in primary DM1 patient myoblasts; experiment: Single-cut screening: CAG foci staining; type: cell-based, human; details: single sgRNA; for % of CAG foci positive nuclei (DNA-PKi): DNA-PKi treated
In short: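 Primary DM1 patient myoblasts were PFA-fixed and hybridized with […] (1 ng/μL, 15 min at 80° C) in 30% formamide/2×SSC, followed by anti-MBNL1 immunostaining and Hoechst counterstain. CAG RNA foci were quantified by high-content confocal imaging after single-cut SuCas9 sgRNA editing.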

[3] = test system: 3′ UTR of the human DMPK gene; experiment: Single-cut screening: indel editing efficiency by Sanger sequencing and ICE analysis in primary DM1 patient myoblasts; type: cell-based; details: vehicle-treated samples; for Indel efficiency: single SluCas9 sgRNA RNP in primary DM1 patient myoblasts, Sanger sequencing and ICE analysis; for indel efficiency (Sanger sequencing and ICE analysis): single-cut, SluCas9 RNP, 72 hrs post nucleofection, wild-type allele
In short: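 Indels were estimated by ICE from Sanger chromatograms of PCR amplicons covering the DMPK 3′ UTR wild-type allele, using only vehicle-treated samples; sgRNAs with R2<0.9 are flagged. Samples came from primary DM1 patient myoblasts (2 × 10^5) harvested 72 h after nucleofection with 30 pmol SluCas9 and 90 pmol single sgRNA RNP.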

Row | Substance | % of CUG foci free nuclei (DNA-PKi) [1] | % of CUG foci free nuclei (Vehicle) [1] | % of CAG foci positive nuclei (DNA-PKi) [2] | % of CAG foci positive nuclei (Vehicle) [2] | Indel efficiency [3] | indel efficiency (Sanger sequencing and ICE analysis) [3]
1 | TGGAGGATGGAACACGGACGGC (listed as DNA, chemistry not fully specified) [SluD18] | 31.47% | 15.38% | 1.55% | 2.71% | 75% | high editing IN4DEL efficiency
2 | TGGGCGGAGACCCACGCTCGGA (guide RNA; chemistry not fully specified) [SluU25] | 47.96% | 23.15% | 1.29% | 0.92% | 38% | 
3 | TGTCTTCGACTCCGGGGCCCCG (listed as DNA, chemistry not fully specified) [SluU06] | 67.15% | 25.49% | 1.1% | 1.01% | 81% | high editing IN4DEL efficiency
4 | TGTGAACTGGCAGGCGGTGGGC (guide RNA; chemistry not fully specified) [SluU17] | 67.55% | 21.96% | 1.28% | 1.5% | 32% | 
5 | TGTGATCCGGGCCCGCCCCCTA (guide RNA; chemistry not fully specified) [SluU33] | 57.35% | 24.67% | 1.3% | 1.14% | 26% | 
6 | TTATTCGCGAGGGTCGGGGGTG (guide RNA; chemistry not fully specified) [SluD89] | 11.37% | 10.23% | 2.54% | 0.61% | 0% | 
7 | TTTATTCGCGAGGGTCGGGGGT (guide RNA; chemistry not fully specified) [SluD91] | 21.28% | 22.42% | 4.23% | 1% | 33% | 
8 | TTTGCACTTTGCGAACCAACGA (guide RNA; chemistry not fully specified) [SluD29] | 28.37% | 7.97% | 2.38% | 1.72% | 35% | 
9 | TTTTATTCGCGAGGGTCGGGGG (guide RNA; chemistry not fully specified) [SluD92] | 24.03% | 24.08% | 3.02% | 1.4% | 30% | 
10 | ccccggccGCTAGGGGGCGGGC (guide RNA; as printed in the source, key not given here) [SluU39] | 36.78% | 10.53% | 2.5% | 0.71% | 11% | 
11 | cccctccctccccggccGCTAG (guide RNA; as printed in the source, key not given here) [SluU46] | 62.89% | 14.46% | 1.5% | 0.74% | 41% | 
12 | cgcggacccggcccctccctcc (CGCGGACCCGGCCCCTCCCTCC; guide RNA; chemistry not fully specified) [SluU53] | 61.52% | 22.52% | 2.9% | 1.44% | 31% | 
13 | cgcggccggcgaacggggcTCG (guide RNA; as printed in the source, key not given here) [SluU59] | 72.56% | 23.05% | 1.4% | 1.35% | 92% | high editing IN4DEL efficiency
14 | cggcccctccctccccggccGC (guide RNA; as printed in the source, key not given here) [SluU51] | 46.88% | 8.62% | 1.6% | 0.72% | 28% | 
15 | cggggagggaggggccgggtcc (CGGGGAGGGAGGGGCCGGGTCC; guide RNA; chemistry not fully specified) [SluU52] | 65.25% | 23.34% | 2.65% | 0.74% | 34% | 
16 | ctccctccccggccGCTAGGGG (guide RNA; as printed in the source, key not given here) [SluU45] | 43.15% | 12.63% | 2.36% | 1.11% | 14% | 
17 | gagggaggggccgggtccgcgg (GAGGGAGGGGCCGGGTCCGCGG; guide RNA; chemistry not fully specified) [SluU54] | 53.64% | 13.12% | 1.28% | 1.14% | 10% | 
18 | gccccgttcgccggccgcggac (guide GCCCCGTTCGCCGGCCGCGGAC; listed as DNA, chemistry not fully specified) [SluU58] | 49.37% | 16.57% | 1.51% | 1.35% | 36% | 
19 | gcccctccctccccggccGCTA (guide RNA; as printed in the source, key not given here) [SluU48] | 24.81% | 20.76% | 1.56% | 1.1% | 11% | 
20 | gccgggtccgcggccggcgaac (GCCGGGTCCGCGGCCGGCGAAC; guide RNA; chemistry not fully specified) [SluU57] | 52.65% | 18.03% | 1.77% | 1.54% | 17% | 
21 | gcggccggcgaacggggcTCGA (guide RNA; as printed in the source, key not given here) [SluU60] | 49.06% | 22.98% | 2.17% | 1.23% | 40% | 
22 | ggcccctccctccccggccGCT (guide RNA; as printed in the source, key not given here) [SluU50] | 48.15% | 11.21% | 1.59% | 0.75% | 22% | 
23 | ggccgggtccgcggccggcgaa (GGCCGGGTCCGCGGCCGGCGAA; guide RNA; chemistry not fully specified) [SluU56] | 42.84% | 16.76% | 1.83% | 0.94% | 27% | 
24 | gggccgggtccgcggccggcga (GGGCCGGGTCCGCGGCCGGCGA; guide RNA; chemistry not fully specified) [SluU55] | 57.91% | 27.94% | 1.34% | 0.99% | 67% | 
25 | tccctccccggccGCTAGGGGG (guide RNA; as printed in the source, key not given here) [SluU43] | 28.61% | 7.64% | 1.76% | 1.02% | 5% | 
